Laboratory results taken from patent US20170015654A1, “PYRIDAZINE COMPOUND” (TAKEDA PHARMACEUTICAL COMPANY LIMITED, priority 2014, published 2017).

Assays:
[1] = test system: human large intestine cancer cell line HCT116; experiment: Antitumor effect on human large intestine cancer cell line HCT116 cancer-bearing mice; type: in vivo, mouse; details: 10 mg/kg, 2 doses per day, orally for 14 days; HCT116 cancer-bearing BALB/c nude mice; tumor growth vs control group
Method: The compound of the present invention was evaluated for its antitumor effect on human large intestine cancer cell line HCT116 cancer-bearing mice by the following method.
The human large intestine cancer cell line HCT116 (purchased from ATCC (American Type Culture Collection)) was transplanted to each 6-week-old BALB/c female nude mouse (BALB/cA Jcl nu/nu: CLEA Japan Inc.) by the subcutaneous injection of 1.0×10^6 cells. After the transplantation, successfully engrafted tumor was observed, and the tumor size was measured 10 to 14 days after the transplantation. The tumor volume was calculated according to the following expression:
Tumor volume=Major axis×Minor axis×Minor axis×(½)
Individuals in which the volume of the engrafted tumor reached approximately 150 mm^3 were selected and used in the experiment as groups each involving 5 to 8 individuals. Each test compound was suspended in a 0.5% methylcellulose solution and orally administered to each individual for 14 days using the dose and the number of doses shown in the table below. Finally, in order to measure drug effects, the tumor volume was calculated from the tumor sizes at the day before the start of the administration and at the final day of the administration, and tumor growth in the test compound administration group compared with a control administration group given only a 0.5% methylcellulose solution was calculated as T/C according to the following expression:
T/C (%)=(Tumor volume after the completion of the administration of the test compound administration group−Tumor volume at the day before the start of the administration of the test compound administration group)/(Tumor volume after the completion of the administration of the control administration group−Tumor volume at the day before the start of the administration of the control administration group)×100

human SCD1 = target: T1, human SCD1 (Homo sapiens, UniProt O00767); experiment: Measurement of human SCD1 binding activity (inhibition of binding of radiolabeled compound Z); details: 1 μM compound; human SCD1-expressing membrane fraction; compound Z radioligand; read-out: Rate of inhibition of SCD1 binding (%) at compound concentration of 1 μM
T1 construct: made in house; host or cells: High Five insect cells (baculovirus, pFastBac1/hSCD1); membrane fraction
T1 sequence (O00767 1-359): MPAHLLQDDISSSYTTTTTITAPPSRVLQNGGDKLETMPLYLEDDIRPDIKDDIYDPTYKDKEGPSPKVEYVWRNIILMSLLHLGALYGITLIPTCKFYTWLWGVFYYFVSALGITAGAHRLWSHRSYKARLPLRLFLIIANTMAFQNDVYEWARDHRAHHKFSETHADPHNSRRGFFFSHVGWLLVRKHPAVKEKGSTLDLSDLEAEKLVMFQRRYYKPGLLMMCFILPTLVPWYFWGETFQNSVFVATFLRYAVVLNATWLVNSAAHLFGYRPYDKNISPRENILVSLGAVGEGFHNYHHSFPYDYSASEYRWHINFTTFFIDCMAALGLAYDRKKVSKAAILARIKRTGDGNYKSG
Method: Measurement of Human SCD1 Binding Activity Using (5-(6-(1′H-spiro[1-benzofuran-3,3′-pyrrolidin]-1′-yl)pyridazin-3-yl)-1,2,4-oxadiazol-3-yl) [^3H2]methanol
The SCD1 binding activity of the compound of the present invention was measured as the activity of inhibiting the binding of (5-(6-(1′H-spiro[1-benzofuran-3,3′-pyrrolidin]-1′-yl)pyridazin-3-yl)-1,2,4-oxadiazol-3-yl)[^3H2]methanol (radiolabeled form of the compound disclosed as a SCD inhibitor in Example 157 of International Publication No. WO2008/096746; in the present specification, also referred to as compound Z) to SCD1.
Specifically, first, Human liver cDNA library (Takara Bio Inc.) was cloned as a template by PCR using KOD-Plus-(Toyobo Co., Ltd.) DNA polymerase. The primers used were 5′-[…]-3′ and 5′-[…]-3′. The amplification fragment was temporarily transferred to a pCR Blunt II-TOPO vector using Zero Blunt PCR Cloning Kit (Life Technologies, Inc.) to obtain pCR Blunt II-TOPO/hSCD1. A fragment obtained by the cleavage of this pCR Blunt II-TOPO/hSCD1 with BamHI and NotI was transferred to pFastBac1 (Life Technologies, Inc.) to construct a recombinant plasmid pFastBac1/hSCD1 for hSCD1 insect cell expression systems.
Baculovirus was prepared using the pFastBac1/hSCD1 plasmid according to the protocol of Bac-to-Bac Baculovirus Expression System (Life Technologies, Inc.).
The insect cells for use in expression were High Five cells (Life Technologies, Inc.) subcultured in a PSFM-J1 medium (Wako Pure Chemical Industries, Ltd.) containing 5% FBS, 10 U/L heparin (Sigma-Aldrich Corp.) and 50 μg/mL gentamicin.
The High Five cells were inoculated at 0.8×10^6 cells/mL and cultured until the following day. When the cell density reached 2.0×10^6 cells/mL, Ammonium Iron(III) Sulfate 12-Water (Wako Pure Chemical Industries, Ltd.) was added thereto at a final concentration of 10 μM. The cells were further infected with the baculovirus and cultured for 3 days.
After the completion of the culture, the culture solution was centrifuged (4° C., 4,000 rpm, […]) and frozen at −80° C. to obtain hSCD1-expressing insect cells. Next, the frozen hSCD1-expressing insect cells were suspended in buffer A (50 mM Tris-HCl (pH 7.5) containing 250 mM sucrose and cOmplete Protease Inhibitor Cocktail Tablets (F. Hoffmann-La Roche, Ltd.)), and the cells were disrupted (4° C., 20,000 rpm, 20 sec×2) using a POLYTORON homogenizer (Central Scientific Commerce, Inc.).
This cell lysate was centrifuged (4° C., 850×g, […]), and the supernatant was further ultracentrifuged (4° C., 186,000×g, 60 min). The supernatant was discarded, and buffer A was added to the precipitate. The resultant was suspended using POLYTRON (4° C., 10,000 rpm, 10 sec×2) and passed through a 40-μm cell strainer to prepare a human SCD1-expressing membrane fraction (hereinafter, also simply referred to as human SCD1). The protein concentration was measured using BCA Protein Assay Kit (Thermo Fisher Scientific, Inc.) with BSA used as standards.
The obtained primary dilution was diluted 250-fold by the addition of an assay buffer (10 mM Tris-HCl, pH 7.5, 100 mM KCl, 10 mM NaF, 3 mM MgCl2, 0.005% Tween 20, 1 mM GSH) to obtain a secondary dilution. The human SCD1 diluted using an assay buffer was dispensed at 100 μL/well (containing 0.2 μg of the protein) to a polypropylene 96-well plate, and then, the secondary dilution of the compound was added thereto at 50 μL/well. Further, a solution of 12 nM compound Z diluted with an assay buffer was added thereto at 50 μL/well, and the plate was left standing at room temperature for 2 hours. Then, the contents in each well were transferred to each well of UniFilter-96 GF/C PEI coated plate (PerkinElmer, Inc.) wetted with a washing buffer, followed by washing five times with a washing buffer (10 mM Tris-HCl, pH 7.5). After drying of the filter plate, Microscint-O (PerkinElmer, Inc.) was added thereto at 25 μL/well, and the obtained radioactivity was measured using TopCount (PerkinElmer, Inc.). […]

Q: How did the “T/C (%)” value [1] turn out when N#CC1(c2ccc(C(F)(F)F)cc2)CCN(c2ccc(-c3nc(CO)no3)nn2)CC1 [Example 38, 1-(6-(3-(Hydroxymethyl)-1,2,4-oxadiazol-5-yl)pyridazin-3-yl)-4-(4-(trifluoromethyl)phenyl)piperidine-4-carbonitrile] was run?
A: 85.8%

Q: And the inhibition at 1 µM (human SCD1)?
A: 95%
